Measurements published in US20090326031A1, “ANTIVIRAL USE OF CATIONIC SURFACTANT” (priority 2006, published 2009).

Columns and labels:
[1] = test system: Clostridium perfringens ATCC 77454; type: cell-based; settings: Gram + Bacteria
[2] = test system: Alcaligenes faecalis ATCC 8750; experiment: minimum inhibitory concentration; type: cell-based; settings: Gram − Bacteria
From the text: (§1) This compound is remarkable for its inhibitory action over the proliferation of different microorganisms, such as bacteria, fungi and yeasts.

[3] = test system: Arthrobacter oxydans ATCC 8010; experiment: minimum inhibitory concentration; type: cell-based; settings: Gram + Bacteria
From the text: as §1

[4] = test system: Aspergillus niger ATCC14604; experiment: minimum inhibitory concentration; type: cell-based; settings: Fungi
From the text: as §1

[5] = test system: Aureobasidium pullulans ATCC 9348; experiment: minimum inhibitory concentration; type: cell-based; settings: Fungi
From the text: as §1

[6] = test system: Bacillus cereus var mycoide ATCC 11778; experiment: minimum inhibitory concentration; type: cell-based; settings: Gram + Bacteria
From the text: as §1

[7] = test system: Bacillus subtilis ATCC 6633; experiment: minimum inhibitory concentration; type: cell-based; settings: Gram + Bacteria
From the text: as §1

[8] = test system: Bordetella bronchiseptica ATCC 4617; experiment: minimum inhibitory concentration; type: cell-based; settings: Gram − Bacteria
From the text: as §1

[9] = test system: Candida albicans ATCC 10231; experiment: minimum inhibitory concentration; type: cell-based; settings: Yeast
From the text: as §1

[10] = test system: Chaetonium globosum ATCC 6205; experiment: minimum inhibitory concentration; type: cell-based; settings: Fungi
From the text: as §1

[11] = test system: Citrobacter freundii ATCC 22636; experiment: minimum inhibitory concentration; type: cell-based; settings: Gram − Bacteria
From the text: as §1

[12] = test system: Enterobacter aerogenes CECT 689; experiment: minimum inhibitory concentration; type: cell-based; settings: Gram − Bacteria
From the text: as §1

Escherichia coli 0157H7 = experiment: minimum inhibitory concentration; type: cell-based; settings: Gram − Bacteria
From the text: as §1

[13] = test system: Escherichia coli ATCC 8739; experiment: minimum inhibitory concentration; type: cell-based; settings: Gram − Bacteria
From the text: as §1

[14] = test system: Gliocadium virens ATCC 4645; experiment: minimum inhibitory concentration; type: cell-based; settings: Fungi
From the text: as §1

[15] = test system: Klebsiella pneumoniae var pneumoniae CECT 178; experiment: minimum inhibitory concentration; type: cell-based; settings: Gram − Bacteria
From the text: as §1

[16] = test system: Lactobacillus delbrueckii ssp lactis CECT 372; experiment: minimum inhibitory concentration; type: cell-based; settings: Gram + Bacteria
From the text: as §1

[17] = test system: Leuconostoc mesenteroides CETC 912; experiment: minimum inhibitory concentration; type: cell-based; settings: Gram + Bacteria
From the text: as §1

[18] = test system: Listeria monocytogenes ATCC 7644; experiment: minimum inhibitory concentration; type: cell-based; settings: Gram + Bacteria
From the text: as §1

[19] = test system: Micrococcus luteus ATCC 9631; experiment: minimum inhibitory concentration; type: cell-based; settings: Gram + Bacteria
From the text: as §1

[20] = test system: Mycobacterium phlei ATCC 41423; experiment: minimum inhibitory concentration; type: cell-based; settings: Gram + Bacteria
From the text: as §1

[21] = test system: Penicillium chrysogenum CECT 2802; experiment: minimum inhibitory concentration; type: cell-based; settings: Fungi
From the text: as §1

[22] = test system: Penicillium funiculosum CECT 2914; experiment: minimum inhibitory concentration; type: cell-based; settings: Fungi
From the text: as §1

[23] = test system: Proteus mirabilis CECT 170; experiment: minimum inhibitory concentration; type: cell-based; settings: Gram − Bacteria
From the text: as §1

[24] = test system: Pseudomonas aeruginosa ATCC 9027; experiment: minimum inhibitory concentration; type: cell-based; settings: Gram − Bacteria
From the text: as §1

[25] = test system: Rhodotorula rubra CECT 1158; experiment: minimum inhibitory concentration; type: cell-based; settings: Yeast
From the text: as §1

[26] = test system: Saccharomyces cerevisiae ATCC 9763; experiment: minimum inhibitory concentration; type: cell-based; settings: Yeast
From the text: as §1

[27] = test system: Salmonella typhimurium ATCC16028; experiment: minimum inhibitory concentration; type: cell-based; settings: Gram − Bacteria
From the text: as §1

[28] = test system: Serratia marcenses CECT 274; experiment: minimum inhibitory concentration; type: cell-based; settings: Gram − Bacteria
From the text: as §1

[29] = test system: Staphylococcus aureus ATCC 6538; experiment: minimum inhibitory concentration; type: cell-based; settings: Gram + Bacteria
From the text: as §1

[30] = test system: parainfluenza bovine type 3 strain SF-4 (ATCC VR-281); experiment: activity of LAE against bovine parainfluenzae 3 virus (virus suspension, TCID50); type: cell-based; settings: LAE 200 ppm
Experimental: (§2) In the following experiments the reduction factor has been calculated.
(§3) This reduction factor is calculated according to the following formula
(§4) R′ presents the reduction factor, v′ represents the volume of the sample of the test compound, a′ is the virus concentration in the added sample (^10log value), v″ is the volume of the final sample, a″ is the virus concentration after treatment (^10log value).
(§5) In the following experiments the clearance factor has been calculated. The clearance factor is calculated according to the following formula: […]
(§6) CL is the elimination factor (clearance factor), q′ is the initial concentration of virus (^10log value), q″ is the final concentration of virus (^10log value).
Eagle minimum essential medium (EMEM) was obtained from Earle (ICN Flow, Rf. 11-100-24), was supplemented with
10% of fetal bovine serum (Biowhittaker, Ref. D14-810F), […] of glutamine (Biowhittaker, Ref. 17-605E), non-essential amino acids (Biowhittaker, Ref. 13-114E), 100 units of penicillin, 100 μg of streptomycin/ml and 1 mM of sodium pyruvate. LAE (CAS 60372-77-2) Lot No. 10234 with a LAE Content of 88.7%.
The investigated strain of the parainfluenza bovine type 3 was SF-4 (ATCC VR-281).
(§7) LAE was investigated at a concentration of 200 ppm.
All experiments were performed at room temperature.
8 ml of deionized water was mixed with 1 ml of the virus suspension. 1 ml of LAE solution (containing 2000 ppm of LAE) was added, leading to a final LAE concentration of 200 ppm.
After 5 and 60 minutes samples for determination were taken. The design of the experiment allowed for conclusions of the effectivity of LAE after contact times of 5 and 60 minutes.
The number of virus particles in the experiment were determined by the quantitative assay TCID50 (infectious dose of cultured tissue).

Herpes virus type 1 = experiment: activity of LAE against Herpes virus type 1; type: cell-based, Herpes simplex virus; settings: LAE 200 ppm
Experimental: as §2, §3, §4, §5, §6
The virus which was investigated was the type Simplex virus of the subfamily Alphaherpesvirinae in the family Herpesviridae.
The conditions for the determination are similarly chosen according to the ones of example 1.
as §7

Vaccinia virus = type: cell-based; settings: LAE 200 ppm
metabolism in rats = type: in vivo; settings: eventually excreted as carbon dioxide and urea
toxicological studies = type: in vivo; settings: animals and humans

CCCCCCCCCCCC(=O)N[C@@H](CCCN=C(N)N)C(=O)OCC.Cl [LAE, ethyl ester of the lauramide of the arginine monohydrochloride]
M.I.C. [1]: 16 ppm
M.I.C. [2]: 64 ppm
M.I.C. [3]: 64 ppm
M.I.C. [4]: 32 ppm
M.I.C. [5]: 16 ppm
M.I.C. [6]: 32 ppm
M.I.C. [7]: 16 ppm
M.I.C. [8]: 128 ppm
M.I.C. [9]: 16 ppm
M.I.C. [10]: 16 ppm
M.I.C. [11]: 64 ppm
M.I.C. [12]: 32 ppm
M.I.C. (Escherichia coli 0157H7): 20 ppm
M.I.C. [13]: 32 ppm
M.I.C. [14]: 32 ppm
M.I.C. [15]: 32 ppm
M.I.C. [16]: 16 ppm
M.I.C. [17]: 32 ppm
M.I.C. [18]: 10 ppm
M.I.C. [19]: 128 ppm
M.I.C. [20]: 2 ppm
M.I.C. [21]: 128 ppm
M.I.C. [22]: 16 ppm
M.I.C. [23]: 32 ppm
M.I.C. [24]: 64 ppm
M.I.C. [25]: 16 ppm
M.I.C. [26]: 32 ppm
M.I.C. [27]: 32 ppm
M.I.C. [28]: 32 ppm
M.I.C. [29]: 32 ppm
Clearance factor ([30]; 60 min contact, 10log values): ≧6.29 ± 0.32
Reduction factor ([30]; 60 min contact, 10log values): ≧6.46 ± 0.32
remaining virus after treatment for 60 minutes ([30]; 60 minutes): no remaining virus organisms were detected
Virus concentration 60 min after addition of LAE ([30]; room temperature, 10log value, TCID50, before addition 8.09 ± 0.33): ≦1.63
Virus concentration 60 min after addition of LAE (Herpes virus type 1; 10log value, before addition 7.94 ± 0.37): ≦1.70
Clearance factor (Herpes virus type 1; 60 min contact, 10log values): ≧6.24 ± 0.37
Reduction factor (Herpes virus type 1; 60 min contact, 10log values): ≧6.18 ± 0.36
remaining virus after treatment for 60 minutes (Herpes virus type 1; 60 minutes): no remaining virus organisms were detected
Virus concentration 60 min after addition of LAE (Vaccinia virus; 10log value, before addition 5.94 ± 0.34): 2.40
living virus after treatment for 5 minutes (Vaccinia virus; 5 minutes): great reduction of the number of living microorganisms
Clearance factor (Vaccinia virus; 60 min contact, 10log values): 3.54 ± 0.34
Reduction factor (Vaccinia virus; 60 min contact, 10log values): 3.92 ± 0.36
living virus after treatment for 60 minutes (Vaccinia virus; 60 minutes): substantial decrease of the number of living Vaccinia virus organisms
absorption and metabolism (metabolism in rats): fast absorption and metabolisation into naturally-occurring amino acids and the fatty acid lauric acid
toxicity (toxicological studies): completely harmless to animals and humans
